In patent US8501791B2, “1,2,4-thiadiazolium derivatives as melanocortin receptor modulators” (Ortho-McNeil Pharamaceutical, Inc., priority 2001, dated 2013):
Several values for one entry are separate records, joined by “and”; a condition that tells them apart may be missing. Identical values can stand only once.

Assays:
[1] = tested on: facial nerve compression, whisker movement; assay: In vivo facial nerve compression model; design: species or system rat; conditions: positive control s.c., 70 ug/each 48 hr
Excerpt: The ability of test compound to provide neuro-protective or neuro-regenerative effects was investigated in a facial nerve compression model. Facial nerve motor axons arise exclusively from neurons within the pons in a well-defined nucleus. Facial nerve compression results in retrograde reactions proximal to the lesion site and Wallerian degeneration at its distal part, which causes diminished whisker movement on the lesioned side. […] The right facial nerve was exposed and compressed with forceps for 30 sec at its exit from the stylomastoid foramen. The left facial nerve was sham-operated and served as an internal control. […] After recovery from anesthesia, the rats were randomly divided into groups for dosing with vehicle, αMSH or test compound, with 6 animals per group. αMSH (s.c., 70 ug/each 48 hr) was used as a positive control. Test compounds were dosed p.o. at 20 mg/kg bid for 14 days. Restoration of whisker movement was monitored daily after the operation using two criteria: (1) frequency of whisker movement on the lesioned side relative to the opposite side (sham-operated) which served as the baseline control (2) semi-quantitative measurements (0 to 4+) on strength of the whisker muscles, characterized based on observation of the percentage of moved whiskers, muscle tone of whisker muscles, and the position of the nose. For all observations, the experimental design was blind to the behavioral observer. […] The recovery rate of the whisker movement was expressed as percentage of its own internal control (sham-operated), as listed in Table 8.

rabbit adipocytes = conditions: read-out: EC50 lipolytic activity; cited from earlier work
[2] = tested on: Food-Deprived Rats (MC-4); assay: Rodent feeding: food intake in food-deprived rats (MC-4); format: in vivo, rat; conditions: 10 mg/kg, ip
Experimental: Male Long-Evans rats (180-200 grams) were housed individually and maintained on a once-a-day feeding schedule (i.e. 10 a.m. until 4 p.m.) for five days following quarantine to allow the animals to acclimate to feeding on powdered chow (#5002 PMI Certified Rodent Meal) during the allotted time. The chow was made available in an open jar, anchored in the cage by a wire, with a metal follower covering the food to minimize spillage. Water was available ad-libitum.
Animals were fasted for 18 hours prior to testing. At the end of the fasting period, animals were administered either a test compound or vehicle. Vehicle and test compound were administered either orally (5 mL/kg) 60 minutes prior to the experiment, subcutaneously (1 mL/kg) 30 minutes prior to the experiment, or intraperitoneally (1 mL/kg) 30 minutes prior to the experiment. Test compounds were administered orally as a suspension in aqueous 0.5% methylcellulose-0.4% Tween 80, or intraperitoneally as a solution or suspension in PEG 200; compound concentrations typically ranged from 1 mg/kg to 100 mg/kg, preferably from 10-30 mg/kg. Food intake was measured at 2, 4, and 6 hours after administration by weighing the special jar containing the food before the experiment and at the specified times. Upon completion of the experiment, all animals were given a one-week washout period before re-testing.

[3] = biological target: T1, melanocortin MC-4 receptor (Homo sapiens, UniProt P32245); assay: Melanocortin MC-4 Receptor Binding Assay (SPA); conditions: 125I-NDP-melanocyte stimulating hormone
T1 construct: purchased Receptor Biology Inc
Experimental: Radioactive ligand ^125I-NDP-melanocyte stimulating hormone [NEN, 2000 Ci/mmol] was added to each well (48.54 per well, […] final concentration). The plate was then sealed and let stand for 16 hr at 25° C. NDP-Melanocyte stimulating hormone peptide and α-melanocyte stimulating hormone peptide [purchased from Palomar Research Inc, 1 μM] were used as reference inhibitor compounds to define non-specific binding (N). Total binding (T) was defined using 30% DMSO-50 mM HEPES, pH 7.4 buffer. Bound radioactivity for each well (Y), measured at counts per minute (cpm) was measured in a TopCount [Packard, Calif.]. Percent inhibition was calculated as: […]

human sebocytes = assay: Sebaceous lipid synthesis by sebaceous cells (14C acetate, HPTLC); format: cell-based; conditions: seven day treatment
Experimental: Semiconfluent cultures of 3T3 mouse fibroblasts (Swiss Albino mouse, ATCC CCL-92) were treated with mitomycin C (4 μg/ml) for 3 hours, trypsinized and seeded at a density of 2.5×10^5/9.5 cm^2 tissue culture plate in Dulbeccos Minimal Essential Medium (DMEM) containing 10% Colorado Calf Serum, PNC (100 U/ml), STM (100 μg/ml), L glutamine (0.3 mg/ml), sodium pyruvate (1 mM) and nonessential amino acids (100 μM). The cells were incubated at 37° C. for 24 hours prior to their use as a feeder layer for sebocytes.
Human sebocytes were isolated from Dermatome shavings of postoperative pieces of human skin at 0.4-0.8 mm depths (this part of the skin was previously shown to be enriched in sebaceous glands). […] Cells so obtained were filtered through nylon mesh (100μ pore size), centrifuged at 750 RPM, re-suspended in GM and counted. […]
Hormones, mixture of hormones i.e. bovine pituitary extract or compounds to be tested were added to the culture at the beginning of phase III. […] This method relies on visualization of neutral lipids by Nile red and quantitation by reading of fluorescence at 535 nm excitation, 580 nm emission using a plate reader. The lipid synthesis was evaluated by radioactive labeling using ^14C acetate and quantified by Bio Rad Phosphoimager (Molecular Imager, FX) using 4.1 Software. […]

[4] = tested on: human skin transplanted to the SCID mouse; assay: Human skin-SCID mouse chimera model, sebum production; format: in vivo, SCID mouse with human skin graft
Excerpt: Severe combined immunodeficient mice (SCID) provide an invaluable model for skin xenografting. These animals are devoid of both T and B cell immunity. Human skin grafts in SCID mice retain human cellular tissue components including skin immune cells, i.e. Langerhans cells, macrophages and lymphocytes and also part of the engrafted endothelium (Kaufman R., et al., Exp. Dermatol. 1993:2:209-216, 1993). These properties allow for the study of physiological and/or pathological responses of human skin cells to a test compound.
C.B-17 scid/scid mice (Taconic, Germantown, N.Y.) were used for grafting at 5-6 weeks of age. Full thickness human facial skin was shaved to ˜0.4 mm using a Forman Dermatome. The skin shavings were washed 3 times in antibiotics and antimycotics (penicillin, streptomycin, fungizone) (Life technologies) in Dulbecco's Modified Eagle Medium (DMEM, Life Technologies). Elliptical skin ˜2.0-2.5×1.0-1.5 was grafted onto the prepared graft bed and sutured using 4.0 silk. During surgical procedures the mice were anaesthetized using a mixture of Ketaset (0.16 mg/g body weight) and Rompun (8.0 μg/g body weight).
It is well accepted that the wound healing process of the transplanted skin in the SCID mouse takes one month, at which time the human skin can be used for experimental purposes. […] Maximum size of the glands was observed 3 month post transplantation. The glands retained their capability to produce human specific sebum and the glandular tissue expressed human specific markers including MC5-R. Since glands reached their maximum size at 2-3 month post transplantation the effects of inhibitors of sebum secretion was tested at this point.
Mice at 2-3 month post transplantation with human facial skin were used for the studies. The graft area was treated with the test compound at the desired concentration(s) dissolved in polyethylene glycol-ethanol (20 μl/2 cm^2). Controls were treated with vehicle alone. The test compounds were applied daily, excluding weekends. Sebum secretion was determined using Sebutape at 15 days and 30 days following treatment.
The termination of the experiment was determined by preliminary clinical evaluation of sebum production using SEBUTAPE. At this time human skin grafts were excised and representative samples were collected for histological evaluation. More particularly, 2 mm punch biopsies were prepared and used for evaluation of lipid synthesis and total lipid accumulation in the treated tissues.
The collected 2 mm punch biopsies were placed individually into 96 well plates in Krebs buffer and labeled with 10 μCi of ^14C acetate for 3 hours. Following this labeling period the samples were washed in medium and 5 biopsies pooled, weighed, and used for lipid extraction. The lipid extraction and analysis by HPTLC was the same as described for tissue culture derived cells. […]

[5] = 30 Day Treatment, topical 0.01%
[6] = 30 Day Treatment, topical 0.05%
[7] = human sebaceous lipids, 11 Day Treatment, topical 0.01%
[8] = human sebaceous lipids, 11 Day Treatment, topical 0.1%
[9] = human sebaceous lipids, 11 Day Treatment, topical 0.5%

T1 sequence (P32245 whole entry): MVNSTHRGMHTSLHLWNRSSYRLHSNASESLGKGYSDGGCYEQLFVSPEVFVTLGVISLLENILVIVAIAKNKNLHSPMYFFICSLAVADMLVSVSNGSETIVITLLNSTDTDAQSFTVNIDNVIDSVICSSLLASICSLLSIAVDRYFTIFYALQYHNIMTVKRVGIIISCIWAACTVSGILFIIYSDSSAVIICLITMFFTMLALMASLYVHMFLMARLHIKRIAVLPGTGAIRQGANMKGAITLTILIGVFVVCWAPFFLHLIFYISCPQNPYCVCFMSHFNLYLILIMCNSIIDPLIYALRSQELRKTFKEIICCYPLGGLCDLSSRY

Molecule: α-MSH
- Percent Recovery of whisker movement D9 ([1]; D9): 2.0 ± 2.8%
- Percent Recovery of whisker movement D10 ([1]; D10): 24.6 ± 15.8%
- Percent Recovery of whisker movement D11 ([1]; D11): 60.1 ± 19.3%
- Percent Recovery of whisker movement D12 ([1]; D12): 93.8 ± 14.0%
- Percent Recovery of whisker movement D13 ([1]; D13): 98.1 ± 5.3%
- Percent Recovery of whisker movement D14 ([1]; D14): 100 ± 0.0%
- EC50 (rabbit adipocytes): 3.7 nM

Molecule: c1ccc(CNc2nc(-c3ccccc3)[n+](-c3ccccc3)s2)cc1 [Compound 84]
- Change in Food Intake 2-6 hrs (%) [2]: −24.5% and −17.8%

Molecule: COc1ccccc1-[n+]1sc(Nc2ccc(Cl)cc2)nc1-c1ccc(C)cc1 [Compound 70]
- IC50 [3]: 566 nM

Molecule: COc1ccccc1-c1nc(Nc2ccccc2)s[n+]1-c1ccccc1OC.[Br-] [Compound 74, 2-(2-methoxyphenyl)-3-(2-methoxyphenyl)-5-phenylamino-[1,2,4]-thiadiazol-2-ium]
- lipid synthesis, radioactively labeled lipids separated by HPTLC (human sebocytes): inhibition of squalene, cholesterol esters and wax esters
- lipid granules in sebocyte cultures, visual (human sebocytes; stained cell cultures): complete disappearance of lipid granules
- % Inh @ 0.01% Cholesterol Ester, Lipid Accumulation [4, 5]: 44%
- % Inh @ 0.01% Cholesterol, Lipid Accumulation [4, 5]: 33%
- % Inh @ 0.01% Cholesterol, Sebaceous Lipid Synthesis [4, 5]: 33%
- % Inh @ 0.01% Squaline, Lipid Accumulation [4, 5]: 82%
- % Inh @ 0.01% Squaline, Sebaceous Lipid Synthesis [4, 5]: 80%
- % Inh @ 0.01% Triglycerides, Lipid Accumulation [4, 5]: 75%
- % Inh @ 0.01% Triglycerides, Sebaceous Lipid Synthesis [4, 5]: 75%
- % Inh @ 0.01% Wax Esters, Lipid Accumulation [4, 5]: 86%
- % Inh @ 0.01% Wax Esters, Sebaceous Lipid Synthesis [4, 5]: 86%
- % Inh @ 0.05% Cholesterol Ester, Lipid Accumulation [4, 6]: 21%
- % Inh @ 0.05% Cholesterol, Lipid Accumulation [4, 6]: 82%
- % Inh @ 0.05% Cholesterol, Sebaceous Lipid Synthesis [4, 6]: 82%
- % Inh @ 0.05% Squaline, Lipid Accumulation [4, 6]: 73%
- % Inh @ 0.05% Squaline, Sebaceous Lipid Synthesis [4, 6]: 90%
- % Inh @ 0.05% Triglycerides, Lipid Accumulation [4, 6]: 90%
- % Inh @ 0.05% Triglycerides, Sebaceous Lipid Synthesis [4, 6]: 90%
- % Inh @ 0.05% Wax Esters, Lipid Accumulation [4, 6]: 93%
- % Inh @ 0.05% Wax Esters, Sebaceous Lipid Synthesis [4, 6]: 93%
- total sebaceous lipid accumulation and de novo synthesis of sebaceous lipids ([4]; 30 days of topical treatment with 0.05% and 0.01% solution): significantly decreased
- % Inh @ 0.01% Squalene [4, 7]: 0%
- % Inh @ 0.01% Triglycerides [4, 7]: 0%
- % Inh @ 0.01% W/E [4, 7]: 25%
- % Inh @ 0.1% Squalene [4, 8]: 70%
- % Inh @ 0.1% Triglycerides [4, 8]: 50%
- % Inh @ 0.1% W/E [4, 8]: 80%
- % Inh @ 0.5% Squalene [4, 9]: 0%
- % Inh @ 0.5% Triglycerides [4, 9]: 0%
- % Inh @ 0.5% W/E [4, 9]: 10%
